Measured values: ChEMBL document CHEMBL3045439, “Isoforms of the heteropteran Nezara viridula ecdysone receptor: protein characterisation, RH5992 insecticide binding and homology modelling” (Pest Manag Sci, 2011)

Assays:
Type in all cases: protein-complex assay
Ecdysone receptor [1] = biological target: T1, Ecdysone receptor (Nezara viridula, UniProt E5L6Y0+E5L6Y1); experiment: Displacement of [3H]PonA from recombinant Nezara viridula EcR11
T1 sequence (E5L6Y1 whole entry): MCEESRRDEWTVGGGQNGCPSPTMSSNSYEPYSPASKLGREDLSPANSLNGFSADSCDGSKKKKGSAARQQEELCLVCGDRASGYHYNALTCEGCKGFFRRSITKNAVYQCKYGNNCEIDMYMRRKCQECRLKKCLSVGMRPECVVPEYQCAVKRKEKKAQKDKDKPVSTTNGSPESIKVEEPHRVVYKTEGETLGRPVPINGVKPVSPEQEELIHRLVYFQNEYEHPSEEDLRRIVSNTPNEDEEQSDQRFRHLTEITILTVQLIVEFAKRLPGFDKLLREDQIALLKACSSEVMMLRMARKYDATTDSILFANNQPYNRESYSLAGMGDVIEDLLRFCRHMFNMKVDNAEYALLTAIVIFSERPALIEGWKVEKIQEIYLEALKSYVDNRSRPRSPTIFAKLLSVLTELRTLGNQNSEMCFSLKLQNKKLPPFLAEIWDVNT
T1 sequence (E5L6Y0 whole entry): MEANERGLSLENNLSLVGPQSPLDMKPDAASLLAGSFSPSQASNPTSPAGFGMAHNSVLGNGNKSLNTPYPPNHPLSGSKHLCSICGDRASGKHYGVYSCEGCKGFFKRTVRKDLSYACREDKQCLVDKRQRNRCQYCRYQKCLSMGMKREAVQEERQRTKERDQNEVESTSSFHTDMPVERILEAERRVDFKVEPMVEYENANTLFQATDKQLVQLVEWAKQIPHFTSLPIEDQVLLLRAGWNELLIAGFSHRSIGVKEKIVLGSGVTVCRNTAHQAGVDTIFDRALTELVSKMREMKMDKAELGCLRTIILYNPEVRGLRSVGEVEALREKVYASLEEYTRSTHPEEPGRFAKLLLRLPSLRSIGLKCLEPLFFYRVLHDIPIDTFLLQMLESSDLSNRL

Ecdysone receptor [2] = biological target: T1, Ecdysone receptor; experiment: Displacement of [3H]PonA from recombinant Nezara viridula EcR10
Ecdysone receptor [3] = biological target: T2, Ecdysone receptor (Leptinotarsa decemlineata, UniProt Q4W6C8+Q4W6D0); experiment: Binding affinity to Leptinotarsa decemlineata EcR
T2 sequence (Q4W6D0 whole entry): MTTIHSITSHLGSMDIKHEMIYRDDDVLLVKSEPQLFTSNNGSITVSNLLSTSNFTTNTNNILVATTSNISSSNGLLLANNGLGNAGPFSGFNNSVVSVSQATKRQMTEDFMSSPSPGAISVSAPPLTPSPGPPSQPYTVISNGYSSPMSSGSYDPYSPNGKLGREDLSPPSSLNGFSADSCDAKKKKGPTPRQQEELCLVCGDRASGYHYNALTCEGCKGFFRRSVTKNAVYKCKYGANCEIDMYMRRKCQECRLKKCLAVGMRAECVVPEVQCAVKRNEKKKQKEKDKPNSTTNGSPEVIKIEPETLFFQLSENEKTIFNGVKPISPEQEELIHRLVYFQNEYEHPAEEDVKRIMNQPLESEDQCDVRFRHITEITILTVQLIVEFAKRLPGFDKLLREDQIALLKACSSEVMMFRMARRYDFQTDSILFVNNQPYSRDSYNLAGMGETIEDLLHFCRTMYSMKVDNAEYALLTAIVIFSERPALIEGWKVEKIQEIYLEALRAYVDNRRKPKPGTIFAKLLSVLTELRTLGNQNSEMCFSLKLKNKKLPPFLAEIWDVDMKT
T2 sequence (Q4W6C8 whole entry): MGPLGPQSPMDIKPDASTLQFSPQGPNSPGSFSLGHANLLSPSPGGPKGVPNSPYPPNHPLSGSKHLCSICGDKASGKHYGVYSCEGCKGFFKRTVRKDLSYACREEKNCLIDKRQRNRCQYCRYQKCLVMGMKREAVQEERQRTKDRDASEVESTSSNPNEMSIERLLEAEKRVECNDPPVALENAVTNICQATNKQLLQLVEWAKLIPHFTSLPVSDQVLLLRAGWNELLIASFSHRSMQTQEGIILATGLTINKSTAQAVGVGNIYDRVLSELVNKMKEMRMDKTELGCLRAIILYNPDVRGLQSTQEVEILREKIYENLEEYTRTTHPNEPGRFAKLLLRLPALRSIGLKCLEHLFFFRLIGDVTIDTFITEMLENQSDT

Ecdysone receptor [4] = biological target: T3, Ecdysone receptor (Spodoptera frugiperda, UniProt Q8MWR1+Q8MWR2); experiment: Binding affinity to Spodoptera frugiperda (fall armyworm) EcR
T3 sequence (Q8MWR2 whole entry): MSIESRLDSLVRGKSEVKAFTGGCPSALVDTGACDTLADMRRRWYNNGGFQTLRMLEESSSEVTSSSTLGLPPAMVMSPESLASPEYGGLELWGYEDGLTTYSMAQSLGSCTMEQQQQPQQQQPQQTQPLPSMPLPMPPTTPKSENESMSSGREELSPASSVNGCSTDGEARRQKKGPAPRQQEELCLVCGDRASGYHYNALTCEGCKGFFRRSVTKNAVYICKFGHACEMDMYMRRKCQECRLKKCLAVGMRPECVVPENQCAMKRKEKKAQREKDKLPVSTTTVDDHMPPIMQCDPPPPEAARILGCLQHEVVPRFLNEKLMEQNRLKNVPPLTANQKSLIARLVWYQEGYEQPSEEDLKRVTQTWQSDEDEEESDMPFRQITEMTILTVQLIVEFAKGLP
T3 sequence (Q8MWR1 whole entry): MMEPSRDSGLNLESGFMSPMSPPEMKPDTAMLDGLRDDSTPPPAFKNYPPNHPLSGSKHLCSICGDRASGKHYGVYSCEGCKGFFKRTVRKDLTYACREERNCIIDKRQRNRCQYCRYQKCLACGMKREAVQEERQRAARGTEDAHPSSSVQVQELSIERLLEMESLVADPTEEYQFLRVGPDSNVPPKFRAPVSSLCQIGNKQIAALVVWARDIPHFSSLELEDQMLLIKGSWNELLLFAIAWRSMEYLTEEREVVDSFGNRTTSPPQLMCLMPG

Ecdysone receptor [5] = biological target: T4, Ecdysone receptor (Drosophila melanogaster, UniProt P20153+P34021); experiment: Binding affinity to Drosophila melanogaster EcR
T4 sequence (P34021 whole entry): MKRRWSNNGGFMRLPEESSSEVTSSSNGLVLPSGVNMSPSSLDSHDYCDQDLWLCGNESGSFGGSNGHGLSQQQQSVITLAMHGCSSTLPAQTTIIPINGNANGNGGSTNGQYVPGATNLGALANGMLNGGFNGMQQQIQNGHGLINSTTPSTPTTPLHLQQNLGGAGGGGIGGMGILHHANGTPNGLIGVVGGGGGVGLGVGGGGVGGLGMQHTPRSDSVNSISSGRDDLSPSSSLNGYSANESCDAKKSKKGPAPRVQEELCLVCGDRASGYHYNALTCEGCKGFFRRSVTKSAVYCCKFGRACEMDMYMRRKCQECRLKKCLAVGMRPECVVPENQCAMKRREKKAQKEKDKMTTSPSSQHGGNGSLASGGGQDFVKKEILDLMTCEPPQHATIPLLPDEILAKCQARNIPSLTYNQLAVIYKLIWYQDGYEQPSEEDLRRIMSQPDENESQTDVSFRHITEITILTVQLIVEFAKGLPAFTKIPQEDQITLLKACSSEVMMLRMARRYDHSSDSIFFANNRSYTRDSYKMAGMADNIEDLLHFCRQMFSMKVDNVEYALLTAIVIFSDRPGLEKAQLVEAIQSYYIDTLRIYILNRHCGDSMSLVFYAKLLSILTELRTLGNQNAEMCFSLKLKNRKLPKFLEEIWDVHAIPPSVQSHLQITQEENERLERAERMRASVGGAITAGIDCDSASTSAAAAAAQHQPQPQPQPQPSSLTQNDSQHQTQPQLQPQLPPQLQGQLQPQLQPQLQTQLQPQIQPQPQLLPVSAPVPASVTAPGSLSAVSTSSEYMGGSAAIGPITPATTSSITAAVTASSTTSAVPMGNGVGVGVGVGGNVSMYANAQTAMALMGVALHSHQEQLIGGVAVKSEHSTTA
T4 sequence (P20153 whole entry): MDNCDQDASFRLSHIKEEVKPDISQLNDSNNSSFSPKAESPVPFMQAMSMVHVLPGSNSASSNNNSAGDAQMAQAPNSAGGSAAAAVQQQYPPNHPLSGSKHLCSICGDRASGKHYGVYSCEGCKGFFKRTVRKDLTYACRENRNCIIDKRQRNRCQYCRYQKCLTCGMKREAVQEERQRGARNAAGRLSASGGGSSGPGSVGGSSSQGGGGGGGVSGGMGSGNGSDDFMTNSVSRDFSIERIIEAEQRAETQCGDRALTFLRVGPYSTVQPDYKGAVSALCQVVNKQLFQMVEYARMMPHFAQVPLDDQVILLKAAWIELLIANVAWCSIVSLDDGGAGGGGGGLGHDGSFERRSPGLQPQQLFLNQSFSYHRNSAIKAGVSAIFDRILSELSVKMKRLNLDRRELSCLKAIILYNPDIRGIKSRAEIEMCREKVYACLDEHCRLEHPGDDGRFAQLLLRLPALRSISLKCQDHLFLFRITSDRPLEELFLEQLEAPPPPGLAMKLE

Ecdysone receptor [6] = biological target: T1, Ecdysone receptor; experiment: Binding affinity to Nezara viridula EcR

Structure (SMILES) | IC50 (Ecdysone receptor [1]) [nM] | Ki (Ecdysone receptor [1]) [nM] | IC50 (Ecdysone receptor [2]) [nM] | Ki (Ecdysone receptor [2]) [nM] | IC50 (Ecdysone receptor [3]) [nM] | IC50 (Ecdysone receptor [4]) [nM] | IC50 (Ecdysone receptor [5]) [nM] | IC50 (Ecdysone receptor [6]) [nM]
C[C@H]([C@H](O)CCC(C)(C)O)[C@H]1CC[C@@]2(O)C3=CC(=O)[C@@H]4C[C@@H](O)[C@@H](O)C[C@]4(C)[C@H]3CC[C@]12C [ECDYSONE] | 60000 | 51100 | 60000 | 50400 |  |  |  | 
CC(CO)CC[C@@H](O)[C@](C)(O)[C@H]1CC[C@@]2(O)C3=CC(=O)[C@@H]4C[C@@H](O)[C@@H](O)C[C@]4(C)[C@H]3CC[C@]12C (stereo not given in full) [INOKOSTERONE] | 7000 | 6000 | 8000 | 6700 |  |  |  | 
C[C@H](C[C@@H](O)[C@](C)(O)[C@H]1CC[C@@]2(O)C3=CC(=O)[C@@H]4C[C@@H](O)[C@@H](O)C[C@]4(C)[C@H]3CC[C@]12C)C(C)(C)O [MAKISTERONE A] |  |  |  |  | 1740 | 389 | 1380 | 1380
CC(C)CC[C@@H](O)[C@](C)(O)[C@H]1CC[C@@]2(O)C3=CC(=O)[C@]4(O)C[C@@H](O)[C@@H](O)C[C@]4(C)[C@H]3[C@H](O)C[C@]12C [MURISTERONE A] | 150 | 100 | 130 | 100 |  |  |  | 
CC(C)CC[C@@H](O)[C@](C)(O)[C@H]1CC[C@@]2(O)C3=CC(=O)[C@@H]4C[C@@H](O)[C@@H](O)C[C@]4(C)[C@H]3CC[C@]12C [PONASTERONE A] | 250 | 200 | 280 | 200 |  |  |  | 
